In patent US9096593B2, “Compounds and methods for kinase modulation, and indications therefor” (Plexxikon Inc., priority 2009, dated 2015):
Read-outs that look alike come from different tables or passages of the source.

How the values were obtained:
Fms kinase = Fms kinase (Homo sapiens (Human), UniProt P07333); experiment: Fms kinase biochemical activity assay (AlphaScreen, biotin-(E4Y)10 phosphorylation)
Procedure, shortened: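 Recombinant human Fms phosphorylating 30 nM biotin-(E4Y)10 with 100 μM ATP (1 ng/well enzyme) in Hepes pH 7.5 buffer with Mg2+/Mn2+, 5% DMSO, 20 min at 30 °C. Phosphotyrosine detected by AlphaScreen streptavidin donor/PY20 acceptor beads; IC50 from signal versus compound concentration.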

c-Kit kinase = c-Kit kinase (Homo sapiens (Human), UniProt P10721); experiment: c-Kit kinase biochemical activity assay (AlphaScreen, biotin-(E4Y)10 phosphorylation)
Chain of c-Kit kinase (P10721 26-976): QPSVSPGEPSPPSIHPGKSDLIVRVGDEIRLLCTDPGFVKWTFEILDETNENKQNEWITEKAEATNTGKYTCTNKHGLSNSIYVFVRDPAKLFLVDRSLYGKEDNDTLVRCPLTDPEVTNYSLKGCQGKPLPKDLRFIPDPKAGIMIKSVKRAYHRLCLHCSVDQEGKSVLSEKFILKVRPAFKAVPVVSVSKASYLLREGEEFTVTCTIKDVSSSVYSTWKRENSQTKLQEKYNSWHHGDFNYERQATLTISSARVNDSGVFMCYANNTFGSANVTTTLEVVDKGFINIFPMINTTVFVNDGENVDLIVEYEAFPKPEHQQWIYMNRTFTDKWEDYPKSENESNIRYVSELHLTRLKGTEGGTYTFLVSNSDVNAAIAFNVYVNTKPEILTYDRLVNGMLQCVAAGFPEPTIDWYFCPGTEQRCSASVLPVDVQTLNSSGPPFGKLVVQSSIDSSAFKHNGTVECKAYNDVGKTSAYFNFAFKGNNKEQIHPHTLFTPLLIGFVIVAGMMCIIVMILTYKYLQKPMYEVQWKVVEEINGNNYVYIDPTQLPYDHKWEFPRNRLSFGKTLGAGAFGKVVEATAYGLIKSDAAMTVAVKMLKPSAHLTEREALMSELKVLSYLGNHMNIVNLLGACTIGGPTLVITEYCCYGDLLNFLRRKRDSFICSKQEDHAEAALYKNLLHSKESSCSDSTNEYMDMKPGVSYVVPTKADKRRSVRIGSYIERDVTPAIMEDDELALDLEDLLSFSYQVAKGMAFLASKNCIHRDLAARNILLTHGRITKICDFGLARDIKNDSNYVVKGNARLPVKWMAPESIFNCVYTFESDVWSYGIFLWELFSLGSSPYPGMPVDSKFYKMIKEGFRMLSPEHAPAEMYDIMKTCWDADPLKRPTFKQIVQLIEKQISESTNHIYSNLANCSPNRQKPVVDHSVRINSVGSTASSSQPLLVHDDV
Description: In one assay the biochemical activity IC50 values are determined with respect to inhibition of c-Kit kinase activity, where inhibition of phosphorylation of a peptide substrate is measured as a function of compound concentration. Compounds to be tested are dissolved in DMSO to a concentration of 20 mM. These are diluted 30 μL into 120 μL of DMSO (4 mM) and 1 μL is added to an assay plate. These are then serially diluted […] (50 μL to 100 μL DMSO) for a total of 8 points. Plates are prepared such that each kinase reaction is 20 μL in 1× kinase buffer (25 mM HEPES, pH 7.5, 2 mM MgCl2, 2 mM MnCl2, 0.01% Tween-20, 1 mM DTT, 0.01% BSA), 5% DMSO and 100 μM ATP. Substrate is 30 nM biotin-(E4Y)10 (Millipore). C-kit kinase (obtained from Millipore (#14-559) or is prepared as described in U.S. Patent Application Publication Number 2009/0076046, the disclosure of which is hereby incorporated by reference as it relates to this assay) is at 0.75 ng per sample. After incubation of the kinase reaction for 1 hour at room temperature, 5 μL of donor beads (Streptavidin coated beads (Perkin Elmer Life Science) final concentration 10 μg/mL) in stop buffer (25 mM Hepes pH 7.5, 100 mM EDTA, 0.01% BSA) is added, the sample is mixed and incubated for 20 minutes at room temperature before adding 5 μL of acceptor beads (PY20 coated beads (Perkin Elmer Life Science) final concentration 10 μg/mL) in stop buffer. The samples are incubated for 60 minutes at room temperature and the signal per well is read on Envision reader. […] The signal vs. compound concentration is used to determine the IC50.

CYP2D6 = CYP2D6 (Homo sapiens (Human), UniProt P10635); experiment: CYP enzyme inhibition, fluorescent substrate; conditions: read-out: Cyp IC50 (μM) 2D6
Chain of CYP2D6 (P10635 whole entry): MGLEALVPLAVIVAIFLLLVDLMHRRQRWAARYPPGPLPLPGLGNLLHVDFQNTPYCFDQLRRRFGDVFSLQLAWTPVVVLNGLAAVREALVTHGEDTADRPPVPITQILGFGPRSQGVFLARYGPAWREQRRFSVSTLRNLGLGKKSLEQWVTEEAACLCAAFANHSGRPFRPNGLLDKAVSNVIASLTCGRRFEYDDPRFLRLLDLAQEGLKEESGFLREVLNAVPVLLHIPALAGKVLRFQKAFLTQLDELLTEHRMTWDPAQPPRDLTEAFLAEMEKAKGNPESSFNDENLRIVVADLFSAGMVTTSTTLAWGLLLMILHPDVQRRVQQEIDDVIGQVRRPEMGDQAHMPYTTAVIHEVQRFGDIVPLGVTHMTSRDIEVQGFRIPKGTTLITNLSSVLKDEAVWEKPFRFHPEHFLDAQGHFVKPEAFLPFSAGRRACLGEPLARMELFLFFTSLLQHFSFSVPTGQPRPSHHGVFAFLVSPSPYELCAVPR
Description: (§1) CYP (Cytochrome P450) enzymes are the major drug metabolizing enzymes present in the liver. The inhibition of CYP enzyme activity (IC50) for each of CYP1A2, CYP2C19, CYP2C9, CYP2D6, CYP3A4(BFC) and CYP3A4(BQ) is determined for compounds, where inhibition of metabolism of a known substrate leads to a decrease in the fluorescence of the metabolized product. The fluorescence of the product is monitored as a function of compound concentration.
(§2) Compounds are dissolved in DMSO to a concentration of 100 mM. These are diluted 1 μL into 82 μL of acetonitrile. An 11 μL aliquot of this solution is then added to 204 μL of cofactor mix (1.3% NADPH Regeneration system Solution A, 1.04% NADPH Regeneration system Solution B from BD Biosciences, 5% acetonitrile and 0.05% DMSO). These are then serially diluted 1:1 (160 μL to 160 μL co-factor mix) for a total of 10 points. A 10 μL aliquot of this final mixture is dispensed into 384 well assay plates and incubated for 10 minutes at 37° C. Enzyme and substrate mix (10 μL; […] CYP1A2/5 μM CEC; 1.0 μmol CYP2C9/75 μM MFC; […] CYP2C19/25 μM CEC; 1.5 μmol CYP2D6/1.5 μM AMMC; 1.0 μmol CYP3A4/50 μM BFC; or 1.0 μmol CYP3A4/40 μM BQ) is added to these assay plates. Assay plates are incubated at 37° C. (CYP1A2-15 min; CYP2C9-45 min; CYP2C19, 2D6 and 3A4-30 min) and read in a Tecan Safire 2 plate reader (CYP1A2, 2C19 and 3A4 409 ex/460 em; CYP2C9 and 2D6409 ex/530 em). The signal versus compound concentration is used to determine the IC50. The enzymes and substrates for this assay are obtained from BD Biosciences.

CYP3A4(BFC) = CYP3A4(BFC) (Homo sapiens (Human), UniProt P08684); experiment: CYP enzyme inhibition, fluorescent substrate
Chain of CYP3A4(BFC) (P08684 whole entry): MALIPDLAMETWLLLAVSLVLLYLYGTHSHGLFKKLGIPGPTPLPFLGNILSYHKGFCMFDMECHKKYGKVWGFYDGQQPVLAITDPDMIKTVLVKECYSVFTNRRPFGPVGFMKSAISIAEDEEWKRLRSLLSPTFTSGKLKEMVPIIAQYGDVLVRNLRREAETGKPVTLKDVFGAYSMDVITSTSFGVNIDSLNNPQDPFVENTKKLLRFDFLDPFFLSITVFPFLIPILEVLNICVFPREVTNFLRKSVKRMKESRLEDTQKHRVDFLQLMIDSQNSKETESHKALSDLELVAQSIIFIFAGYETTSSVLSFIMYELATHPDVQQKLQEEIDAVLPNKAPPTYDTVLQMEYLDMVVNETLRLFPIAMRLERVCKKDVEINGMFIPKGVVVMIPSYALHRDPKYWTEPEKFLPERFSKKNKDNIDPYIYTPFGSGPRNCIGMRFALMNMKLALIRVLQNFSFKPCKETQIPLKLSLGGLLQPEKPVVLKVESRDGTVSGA
Description: as §1, §2

CYP3A4(BQ) = CYP3A4(BQ) (Homo sapiens (Human), UniProt P08684); experiment: CYP enzyme inhibition, fluorescent substrate
Chain of CYP3A4(BQ) (P08684 whole entry): as above
Description: as §1, §2

CYP2C9 = CYP2C9 (Homo sapiens (Human), UniProt P11712); experiment: CYP enzyme inhibition, fluorescent substrate
Chain of CYP2C9 (P11712 whole entry): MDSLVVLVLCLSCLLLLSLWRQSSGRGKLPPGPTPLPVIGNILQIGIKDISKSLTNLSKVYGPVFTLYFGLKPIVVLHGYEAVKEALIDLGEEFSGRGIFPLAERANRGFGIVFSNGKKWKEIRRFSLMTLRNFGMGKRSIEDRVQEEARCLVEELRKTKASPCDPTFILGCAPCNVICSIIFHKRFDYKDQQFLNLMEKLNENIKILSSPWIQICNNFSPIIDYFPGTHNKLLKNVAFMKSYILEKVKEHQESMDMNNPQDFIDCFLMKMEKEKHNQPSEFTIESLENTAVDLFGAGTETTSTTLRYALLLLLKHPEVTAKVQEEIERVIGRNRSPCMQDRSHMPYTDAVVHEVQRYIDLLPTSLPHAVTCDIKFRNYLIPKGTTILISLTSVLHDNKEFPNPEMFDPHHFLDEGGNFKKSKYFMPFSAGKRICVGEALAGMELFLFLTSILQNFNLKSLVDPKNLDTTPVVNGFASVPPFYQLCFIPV
Description: as §1, §2

CYP1A2 = CYP1A2 (Homo sapiens (Human), UniProt P05177); experiment: CYP enzyme inhibition, fluorescent substrate
Chain of CYP1A2 (P05177 whole entry): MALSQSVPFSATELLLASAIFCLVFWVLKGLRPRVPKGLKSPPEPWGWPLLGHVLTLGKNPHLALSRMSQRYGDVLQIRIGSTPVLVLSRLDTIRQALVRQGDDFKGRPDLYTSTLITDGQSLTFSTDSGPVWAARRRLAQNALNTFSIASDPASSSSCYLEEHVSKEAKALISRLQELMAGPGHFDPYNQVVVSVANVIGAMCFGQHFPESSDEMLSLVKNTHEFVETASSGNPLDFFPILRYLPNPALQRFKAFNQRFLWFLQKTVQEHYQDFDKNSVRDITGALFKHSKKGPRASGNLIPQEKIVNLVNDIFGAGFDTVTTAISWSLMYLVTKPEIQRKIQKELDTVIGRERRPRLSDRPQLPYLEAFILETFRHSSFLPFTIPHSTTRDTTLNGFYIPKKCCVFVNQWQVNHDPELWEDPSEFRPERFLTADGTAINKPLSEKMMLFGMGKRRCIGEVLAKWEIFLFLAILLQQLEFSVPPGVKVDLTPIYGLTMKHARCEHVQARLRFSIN
Description: as §1, §2

[1] = read-out: Biochemical activity (IC50 μM) Fms
[2] = read-out: Cyp IC50 (μM) 3A4(BFC), BFC substrate
[3] = human, CYP2C9 enzyme (BD Biosciences), 45 min
[4] = 100 μM ATP, read-out: Biochemical (IC50 μM) Fms

Chain of Fms kinase (P07333 20-972): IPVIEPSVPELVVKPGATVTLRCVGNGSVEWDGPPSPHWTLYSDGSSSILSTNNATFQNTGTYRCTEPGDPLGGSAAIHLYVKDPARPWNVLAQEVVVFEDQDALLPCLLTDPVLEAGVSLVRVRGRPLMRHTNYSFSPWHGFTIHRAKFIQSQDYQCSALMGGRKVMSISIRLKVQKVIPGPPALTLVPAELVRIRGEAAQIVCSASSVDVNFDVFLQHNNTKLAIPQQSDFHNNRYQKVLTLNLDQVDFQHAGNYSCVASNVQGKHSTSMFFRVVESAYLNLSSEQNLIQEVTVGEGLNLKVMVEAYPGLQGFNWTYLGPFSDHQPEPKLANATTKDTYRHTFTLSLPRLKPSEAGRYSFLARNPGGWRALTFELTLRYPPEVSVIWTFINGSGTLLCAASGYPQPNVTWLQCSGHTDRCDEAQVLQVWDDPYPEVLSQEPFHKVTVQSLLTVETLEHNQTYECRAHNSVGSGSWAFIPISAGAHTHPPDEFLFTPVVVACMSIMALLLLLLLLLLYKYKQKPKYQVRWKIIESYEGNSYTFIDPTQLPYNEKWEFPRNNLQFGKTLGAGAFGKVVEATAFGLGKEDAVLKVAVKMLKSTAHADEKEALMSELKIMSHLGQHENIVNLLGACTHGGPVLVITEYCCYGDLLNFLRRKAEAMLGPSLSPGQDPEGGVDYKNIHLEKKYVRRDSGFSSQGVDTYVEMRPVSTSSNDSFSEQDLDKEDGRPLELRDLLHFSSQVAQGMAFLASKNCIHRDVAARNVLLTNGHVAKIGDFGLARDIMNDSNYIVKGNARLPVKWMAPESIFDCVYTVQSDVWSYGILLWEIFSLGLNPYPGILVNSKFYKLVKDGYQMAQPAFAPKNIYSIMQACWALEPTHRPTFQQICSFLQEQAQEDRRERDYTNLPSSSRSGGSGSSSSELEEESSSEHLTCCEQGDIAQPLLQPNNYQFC

| SMILES | Biochemical activity selectivity (Kit IC50/Fms IC50) (Fms kinase) | IC50 (Fms kinase; [1]) [µM] | IC50 (c-Kit kinase) [µM] | other results |
| --- | --- | --- | --- | --- |
| COc1ccc(CNc2ncc(Cc3c[nH]c4ncc(C)cc34)cc2C)cn1 [Compound P-1554, (6-Methoxy-pyridin-3-ylmethyl)-[3-methyl-5-(5-methyl-1H-pyrrolo[2,3-b]pyridin-3-ylmethyl)-pyridin-2-yl]-amine] | <20 | < 0.1 | < 0.1 | – |
| COc1ccc(CNc2ccc(Cc3c[nH]c4ncc(F)cc34)c(F)n2)cn1 [Compound P-1622, [6-Fluoro-5-(5-fluoro-1H-pyrrolo[2,3-b]pyridin-3-ylmethyl)-pyridin-2-yl]-(6-methoxy-pyridin-3-ylmethyl)-amine] | >20 | < 0.1 | > 0.1 | IC50 (CYP2D6): > 10 µM; IC50 (CYP3A4(BFC)): 5 to 10 µM; IC50 (CYP3A4(BQ)): 5 to 10 µM; IC50 (CYP2C9): 5 to 10 µM; IC50 (CYP1A2; human, 15 min): > 10 µM |
| CS(=O)(=O)Nc1cnc2[nH]cc(Cc3ccc(NCc4ccc(Cl)nc4)nc3F)c2c1 [Compound P-1679, N-(3-{6-[(6-Chloro-pyridin-3-ylmethyl)-amino]-2-fluoro-pyridin-3-ylmethyl}-1H-pyrrolo[2,3-b]pyridin-5-yl)-methanesulfonamide] | >20 | < 0.1 | > 0.1 | IC50 (CYP2D6): > 10 µM; IC50 (CYP3A4(BFC); [2]): > 10 µM; IC50 (CYP2C9; [3]): < 5 µM; IC50 (CYP1A2; human, 15 min): > 10 µM |
| Fc1ccc(CNc2ncc(Cc3c[nH]c4ncc(Cl)cc34)cn2)cc1F [Compound P-2008, [5-(5-Chloro-1H-pyrrolo[2,3-b]pyridin-3-ylmethyl)-pyrimidin-2-yl]-(3,4-difluoro-benzyl)-amine] | <20 | < 0.1 | < 0.1 | – |
| Cc1cccc(CNc2ncc(Cc3c[nH]c4ncc(Cl)cc34)cn2)c1 [Compound P-2013, [5-(5-Chloro-1H-pyrrolo[2,3-b]pyridin-3-ylmethyl)-pyrimidin-2-yl]-(3-methyl-benzyl)-amine] | <20 | < 0.1 | < 0.1 | – |
| Cc1cnc2[nH]cc(Cc3ccc(NCc4ccc(C(F)(F)F)nc4)nc3F)c2c1 [Compound P-2031, [6-Fluoro-5-(5-methyl-1H-pyrrolo[2,3-b]pyridin-3-ylmethyl)-pyridin-2-yl]-(6-trifluoromethyl-pyridin-3-ylmethyl)-amine] | <20 | < 0.1 | > 0.1 | IC50 (CYP2D6): > 10 µM; IC50 (CYP3A4(BFC)): 5 to 10 µM; IC50 (CYP3A4(BQ)): 5 to 10 µM; IC50 (CYP2C9; [3]): < 5 µM; IC50 (CYP1A2; human, 15 min): > 10 µM; IC50 (Fms kinase; [4]): < 0.1 µM |
| COc1cnc2[nH]cc(Cc3ccc(NCc4ccc(Cl)cc4)nc3F)c2c1 [Compound P-2032, (4-Chloro-benzyl)-[6-fluoro-5-(5-methoxy-1H-pyrrolo[2,3-b]pyridin-3-ylmethyl)-pyridin-2-yl]-amine] | <20 | < 0.1 | < 0.1 | IC50 (CYP2D6): > 10 µM; IC50 (CYP3A4(BFC); [2]): > 10 µM; IC50 (CYP3A4(BQ); read-out: Cyp IC50 (μM) 3A4(BQ), BQ substrate): > 10 µM; IC50 (CYP2C9; [3]): < 5 µM; IC50 (CYP1A2): 5 to 10 µM; IC50 (Fms kinase; [4]): < 0.1 µM |
| COc1cnc2[nH]cc(Cc3ccc(NCc4ccccc4Cl)nc3F)c2c1 [Compound P-2034, (2-chloro-benzyl)-[6-fluoro-5-(5-methoxy-1H-pyrrolo[2,3-b]pyridin-3-ylmethyl)-pyridin-2-yl]-amine] | – | – | – | IC50 (Fms kinase; [4]): < 0.1 µM |
| COc1cnc2[nH]cc(Cc3ccc(NCc4cccnc4OC)nc3F)c2c1 [Compound P-2043, [6-Fluoro-5-(5-methoxy-1H-pyrrolo[2,3-b]pyridin-3-ylmethyl)-pyridin-2-yl]-(2-methoxy-pyridin-3-ylmethyl)-amine] | >20 | – | – | IC50 (CYP3A4(BFC); [2]): > 10 µM; IC50 (CYP3A4(BQ)): 5 to 10 µM; IC50 (CYP2C9): 5 to 10 µM; IC50 (CYP1A2; human, 15 min): > 10 µM |
| Fc1nc(NCc2ccc(Cl)cn2)ccc1Cc1c[nH]c2ncccc12 [Compound P-2044, (5-Chloro-pyridin-2-ylmethyl)-[6-fluoro-5-(1H-pyrrolo[2,3-b]pyridin-3-ylmethyl)-pyridin-2-yl]-amine] | – | – | – | IC50 (Fms kinase; [4]): < 0.1 µM |
| Cc1cnc2[nH]cc(Cc3ccc(NCc4cnccc4C(F)(F)F)nc3)c2c1 [Compound P-2070, [5-(5-Methyl-1H-pyrrolo[2,3-b]pyridin-3-ylmethyl)-pyridin-2-yl]-(4-trifluoromethyl-pyridin-3-ylmethyl)-amine] | <20 | < 0.1 | < 0.1 | – |
| Cc1cnc2[nH]cc(Cc3cnc(NCc4ccc(Cl)nc4)nc3)c2c1 [Compound P-2078, (6-Chloro-pyridin-3-ylmethyl)-[5-(5-methyl-1H-pyrrolo[2,3-b]pyridin-3-ylmethyl)-pyrimidin-2-yl]-amine] | >20 | < 0.1 | > 0.1 | IC50 (CYP2C9; human, 45 min): < 5 µM; IC50 (CYP1A2; human, CYP1A2 enzyme (BD Biosciences), 15 min): > 10 µM |
| Cc1cnc2[nH]cc(Cc3cnc(NCc4cccnc4OC4CCCC4)nc3)c2c1 [Compound P-2148, (2-Cyclopentyloxy-pyridin-3-ylmethyl)-[5-(5-methyl-1H-pyrrolo[2,3-b]pyridin-3-ylmethyl)-pyrimidin-2-yl]-amine] | <20 | < 0.1 | > 0.1 | – |
| COc1ccc(CNc2ncc(Cc3c[nH]c4ncc(Cl)cc34)s2)cn1 [Compound P-2154, [5-(5-Chloro-1H-pyrrolo[2,3-b]pyridin-3-ylmethyl)-thiazol-2-yl]-(6-methoxy-pyridin-3-ylmethyl)-amine] | <20 | < 0.1 | < 0.1 | – |
| COc1cccc(CNc2ncc(Cc3c[nH]c4ncc(Cl)cc34)s2)n1 [Compound P-2163, [5-(5-Chloro-1H-pyrrolo[2,3-b]pyridin-3-ylmethyl)-thiazol-2-yl]-(6-methoxy-pyridin-2-ylmethyl)-amine] | <20 | < 0.1 | > 0.1 | – |
| Fc1cncc(CNc2ncc(Cc3c[nH]c4ncc(Cl)cc34)cn2)c1 [Compound P-2176, [5-(5-Chloro-1H-pyrrolo[2,3-b]pyridin-3-ylmethyl)-pyrimidin-2-yl]-(5-fluoro-pyridin-3-ylmethyl)-amine] | >20 | < 0.1 | > 0.1 | – |
| CCS(=O)(=O)Nc1cc(F)cc(CNc2ccc(Cc3c[nH]c4ncc(C)cc34)c(F)n2)c1 [Compound P-2202, Ethanesulfonic acid (3-fluoro-5-{[6-fluoro-5-(5-methyl-1H-pyrrolo[2,3-b]pyridin-3-ylmethyl)-pyridin-2-ylamino]-methyl}-phenyl)-amide] | <20 | < 0.1 | > 0.1 | – |
